{
  "source": "paper PMC7417534",
  "about": "“Cytochrome P450 inhibition potential and initial genotoxic evaluation of 14-O-[(4,6-diaminopyrimidine-2-yl)thioacetyl] mutilin” (Scientific Reports, 2020)",
  "key": {"[1]": {"system": "S. typhimurium TA97", "assay": "Ames test, strain TA97", "type": "cell-based, Salmonella typhimurium", "details": "− S9; positive control, 10 μg/plate", "description": "(§1) S. typhimurium strains TA97, TA98, TA100, TA102 and TA1535 were stored and maintained as provided in the standard protocol. Each of the strains was checked for their genetic integrity prior to the experiment, and tested for biotin dependence, histidine dependence, biotin and histidine dependence, rfa marker (crystal violet) and presence of the plasmid pKM101 (ampicillin resistance) or pAQ1 (tetracycline resistance). Different strains were used to identify different types of mutations.\n(§2) The test was carried out at five different concentrations of DPTM. […] Then 1 mL solution was diluted with distilled water by two fold. […] The negative control used in this experiment was 1 mL DMSO which was directly incorporated into 9 mL melted top agar.\n(§3) The Ames test of DPTM was conducted as described in the literatures[42],[43] with some modifications. Briefly, 1 mL of strain was inoculated into 5 mL of nutrient broth, followed by incubating overnight at 37 °C. The mixture comprised respective strains, drug, negative and positive controls with the S9 for testing in the presence of metabolic activation system. For testing without S9, 1 × phosphate buffer saline (PBS, pH 7.4) replaced the S9 mix. The obtained mixtures were added into the tube, mixed well and incubated at 37 °C for 20 min. Then, the top agar was melted and 2 mL of this melted top agar was added to each tube and gently mixed. […] The results were expressed as the number of revertant colonies per plate. The experiments were performed in triplicate."}, "[2]": {"system": "CYP3A4", "details": "cited from earlier work"}, "[3]": {"system": "S. typhimurium TA1535", "details": "− S9; positive control, 5 μg/plate", "description": "as §1, §2, §3"}, "[4]": {"system": "S. typhimurium TA100", "details": "− S9; positive control, 5 μg/plate", "description": "as §1, §2, §3"}},
  "note": "Where two headings read alike, the source gives them in different places.",
  "data": [
    {"smiles": "Nc1ccc([N+](=O)[O-])cc1N", "note": "[4-nitro-o-phenylenediamine, reference compound]", "values": [
      {"measurement": "revertant colonies per plate, TA97", "setting": "[1]", "result": "803 ± 37", "unit": "CFU"}
    ]},
    {"smiles": "C=C[C@]1(C)C[C@@H](OC(=O)CSc2nc3ccc(N)cc3[nH]2)[C@]2(C)[C@H](C)CC[C@]3(CCC(=O)[C@H]32)[C@@H](C)[C@@H]1O", "note": "[14-O-((5-Amino-benzimidazole-2-yl)thioacetyl) mutilin]", "values": [
      {"measurement": "IC50", "setting": "[2]; read-out: IC50 value, CYP3A4 inhibition", "result": 1690, "unit": "nM"}
    ]},
    {"smiles": "C=C[C@]1(C)C[C@@H](OC(=O)CS[C@@H]2CC[C@@H](N)C[C@H]2O)[C@]2(C)[C@H](C)CC[C@]3(CCC(=O)[C@H]32)[C@@H](C)[C@@H]1O", "note": "[Lefamulin]", "values": [
      {"measurement": "IC50", "setting": "[2]; read-out: IC50, inhibition for CYP3A4", "result": "< 5000", "unit": "nM"}
    ]},
    {"smiles": "[N-]=[N+]=[N-].[Na+]", "note": "[sodium azide, reference compound]", "values": [
      {"measurement": "revertant colonies per plate, TA1535", "setting": "[3]", "result": "774 ± 20", "unit": "CFU"},
      {"measurement": "revertant colonies per plate, TA100", "setting": "[4]", "result": "984 ± 59", "unit": "CFU"}
    ]}
  ]
}
